The values that follow come from ChEMBL document CHEMBL4732190, “Identification of Potent and Long-Acting Single-Chain Peptide Mimetics of Human Relaxin-2 for Cardiovascular Diseases” (J Med Chem, 2021).

Values after ≈ are worked out from the molar mass of the structure shown. *1 amine or outer side, *2 acyl side, *3 side chain or, on linkers, in order; H or OH if unused. Where a SMILES comes first, the peptide text is derived from it. [ ]: non-standard residue; d: D form. The star is where a group is joined. PEG11 = NCCOCCOCCOCCOCCOCCOCCOCCOCCOCCOCCOCCC(=O)O; X9 = NC(=O)CC[C@H](N*)C(=O)CCCCCCCCCCCCCCCCCC(=O)O; X8 = NC(=O)CC[C@H](N*)C(=O)CCCCCCCCCCCCCCCC(=O)O; X7 = CCCCCCCCCCCCCCCC(=O)[C@H](CCC(N)=O)N*; β2hAla(2S) = C[C@@H](CN[*:1])C(=O)[*:2]; hLys = NCCCCC[C@H](N)C(=O)O; Nle = CCCC[C@H](N)C(=O)O

A short description of series [1]: Stability in human plasma assessed as parent compound remaining level at 5 uM remaining after 4 hrs. It is filed as ADME, cell-free. Particulars: read-out: Stabilty.
A short description of series [2]: Aqueous solubility of compound in acetate buffer at pH 4.5 measured after 24 hrs by UPLC analysis. It is filed as physicochemical.
The nature of series [3]: Aqueous solubility of compound in phosphate buffer at pH 7.4 measured after 24 hrs by UPLC analysis. In kind it is physicochemical.
The nature of series [4]: Stability in rat plasma assessed as parent compound remaining level at 5 uM remaining after 4 hrs. It is filed as ADME, cell-free. Conditions: read-out: Stabilty.
Series [5] concerns the target T1, Relaxin receptor 1 (Homo sapiens, UniProt Q9HBX9).
T1 sequence (Q9HBX9 whole entry): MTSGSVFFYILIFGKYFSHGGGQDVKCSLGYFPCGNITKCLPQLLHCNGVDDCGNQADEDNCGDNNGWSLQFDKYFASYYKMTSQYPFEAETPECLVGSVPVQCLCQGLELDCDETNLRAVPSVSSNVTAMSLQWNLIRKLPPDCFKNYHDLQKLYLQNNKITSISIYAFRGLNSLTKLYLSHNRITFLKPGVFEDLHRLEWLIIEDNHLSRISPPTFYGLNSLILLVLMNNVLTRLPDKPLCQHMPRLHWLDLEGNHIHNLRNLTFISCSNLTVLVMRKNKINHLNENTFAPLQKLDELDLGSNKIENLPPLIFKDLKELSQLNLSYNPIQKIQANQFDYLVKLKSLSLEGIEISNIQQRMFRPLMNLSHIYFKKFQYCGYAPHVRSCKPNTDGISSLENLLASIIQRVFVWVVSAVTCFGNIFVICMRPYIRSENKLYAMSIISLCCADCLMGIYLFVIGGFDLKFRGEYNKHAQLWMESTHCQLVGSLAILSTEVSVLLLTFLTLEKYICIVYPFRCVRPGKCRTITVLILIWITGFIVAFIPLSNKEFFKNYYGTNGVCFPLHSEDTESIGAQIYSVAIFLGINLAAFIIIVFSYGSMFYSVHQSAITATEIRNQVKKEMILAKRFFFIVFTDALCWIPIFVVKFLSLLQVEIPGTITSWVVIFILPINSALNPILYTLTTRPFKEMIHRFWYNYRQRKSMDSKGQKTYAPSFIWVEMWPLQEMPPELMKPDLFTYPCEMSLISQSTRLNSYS
Kind of series: Agonist activity at RXFP1 endogenously expressed in human OVCAR-5 cells assessed as increase in IBMX-induced cAMP accumulation pretreated with IBMX for 40 mins followed by compound addition and measured after 30 mins by HTRF assay. In kind it is functional, cell-based.

The target of series [6] is T2, Relaxin receptor 1 (Homo sapiens) (UniProt Q9HBX9).
T2 sequence (whole entry): T1 sequence (Q9HBX9 whole entry)
Kind of series: Agonist activity at RXFP1 endogenously expressed in human OVCAR-5 cells assessed as increase in IBMX-induced cAMP accumulation pretreated with IBMX for 40 mins followed by compound addition and measured after 30 mins by HTRF assay relative to relaxin. In kind it is functional, cell-based. Conditions: filed as agonist.

In series [7] the target is T1, Relaxin receptor 1. Briefly: Agonist activity at RXFP1 endogenously expressed in human OVCAR-5 cells assessed as increase in IBMX-induced cAMP accumulation pretreated with IBMX for 40 mins followed by compound addition and measured after 30 mins in presence of 2 % HSA by HTRF assay. In kind it is functional, cell-based.
The nature of series [8]: Half life in Sprague-Dawley rat at 1 mg/kg, iv measured upto 72 hrs by LC-HRMS analysis. It is filed as ADME, organism-based. Conditions: in vivo.

Take H-VIKLSGRELVRAQIAISGMSTWSKRSL-NH2: the values for the remaining at 4 h, 5 µM in series [1] and in series [4] were 3% and 2%, respectively. Further, the solubility at 24 h in series [2] stood at 1900 µg/mL; in series [3], 14 µg/mL.
As for `CC[C@H](C)[C@H](NC(=O)[C@H](CCC(N)=O)NC(=O)[C@H](C)NC(=O)[C@H](CCCNC(=N)N)NC(=O)[C@@H](NC(=O)[C@H](CCCCN)NC(=O)[C@H](CCC(=O)O)NC(=O)[C@H](CCCNC(=N)N)NC(=O)CNC(=O)[C@H](CCC(=O)O)NC(=O)[C@H](CC(C)C)NC(=O)[C@H](CCCCN)NC(=O)[C@@H](NC(=O)[C@@H](NC(=O)[C@H](CCC(=O)O)NC(=O)[C@H](CCC(=O)O)NC(C)=O)C(C)C)[C@@H](C)CC)C(C)C)C(=O)NC[C@H](C)C(=O)NC[C@H](C)C(=O)N[C@@H](CCC(=O)O)C(=O)NCC(=O)N[C@@H](CCSC)C(=O)N[C@@H](CO)C(=O)N[C@H](C(=O)N[C@@H](Cc1c[nH]c2ccccc12)C(=O)N[C@@H](CO)C(=O)NC[C@H](C)C(=O)N[C@@H](CCCNC(=N)N)C(=O)N[C@@H](CCCCN)C(=O)N[C@@H](CCCCN)C(N)=O)[C@@H](C)O` (Ac-EEVIKLEGREKVRAQI[β2hAla(2S)][β2hAla(2S)]EGMSTWS[β2hAla(2S)]RKK-NH2), the remaining at 4 h, 5 µM was determined as 80% in series [1] and 60% in series [4]. Also, the EC50 in series [5] was determined as 17.8 nM. In series [6], the Emax is 99%. In addition, the solubility at 24 h in series [2] turned out to be 2800 µg/mL (≈ 827 µM); in series [3], 2400 µg/mL (≈ 709 µM).
As for `CC[C@H](C)[C@H](NC(=O)[C@H](CCC(N)=O)NC(=O)[C@H](C)NC(=O)[C@H](CCCNC(=N)N)NC(=O)[C@@H](NC(=O)[C@H](CCCCN)NC(=O)[C@H](CCC(=O)O)NC(=O)[C@H](CCCNC(=N)N)NC(=O)CNC(=O)[C@H](CCC(=O)O)NC(=O)[C@H](CC(C)C)NC(C)=O)C(C)C)C(=O)NC[C@H](C)C(=O)NC[C@H](C)C(=O)N[C@@H](CCC(=O)O)C(=O)NCC(=O)N[C@@H](CCSC)C(=O)N[C@@H](CO)C(=O)N[C@H](C(=O)N[C@@H](Cc1c[nH]c2ccccc12)C(=O)N[C@@H](CO)C(=O)NC[C@H](C)C(=O)N[C@@H](CCCNC(=N)N)C(=O)N[C@@H](CCCCN)C(=O)N[C@@H](CCCCN)C(N)=O)[C@@H](C)O` (Ac-LEGREKVRAQI[β2hAla(2S)][β2hAla(2S)]EGMSTWS[β2hAla(2S)]RKK-NH2), the remaining at 4 h, 5 µM in series [1] was determined as 93%; in series [4], 101%. In addition, the EC50 in series [5] is 14 nM. Further, in series [6], the Emax came out at 99%. For the same molecule, the solubility at 24 h amounted to 6100 µg/mL (≈ 2190 µM) in series [2] and 5800 µg/mL (≈ 2080 µM) in series [3].
Consider `CCCC[C@H](NC(=O)[C@H](CCSC)NC(=O)CNC(=O)[C@H](CCC(=O)O)NC(=O)[C@@H](C)CNC(=O)[C@@H](C)CNC(=O)[C@@H](NC(=O)[C@H](CCCCCNC(C)=O)NC(=O)[C@H](CCCCN)NC(=O)[C@H](C)NC(=O)[C@H](CCCNC(=N)N)NC(=O)[C@@H](NC(=O)[C@H](CCCCN)NC(=O)[C@H](CCC(=O)O)NC(=O)[C@H](CCCNC(=N)N)NC(=O)[C@H](CCC(=O)O)NC(=O)CNC(=O)[C@H](CCC(=O)O)NC(=O)[C@H](CC(C)C)NC(C)=O)C(C)C)[C@@H](C)CC)C(=O)N[C@@H](CCCCN)C(=O)N[C@@H](CCCCCNC(C)=O)C(=O)N[C@@H](CO)C(=O)N[C@H](C(=O)N[C@@H](Cc1c[nH]c2ccccc12)C(=O)N[C@@H](CO)C(=O)NC[C@H](C)C(=O)N[C@@H](CCCNC(=N)N)C(=O)N[C@@H](CCCCN)C(=O)N[C@@H](CCCCN)C(=O)N[C@@H](CCCCCNC(C)=O)C(=O)N[C@@H](CCCCN)C(=O)N[C@@H](CCC(=O)O)C(=O)N[C@@H](CCC(=O)O)C(=O)N[C@@H](CCC(N)=O)C(=O)CCCCCCCCCCCCCCCCCC(=O)O)[C@@H](C)O` (Ac-LEGEREKVRAK[hLys](Ac)I[β2hAla(2S)][β2hAla(2S)]EGM[Nle]K[hLys](Ac)STWS[β2hAla(2S)]RKK[hLys](Ac)KEE-X9), for which the concentration giving a half-maximal response (EC50) in series [5] is 368 nM; in series [7] it was above 2000 nM. Also, the Emax in series [6] was 75%.
For `CC[C@H](C)[C@H](NC(=O)[C@H](CCC(N)=O)NC(=O)[C@H](C)NC(=O)[C@H](CCCNC(=N)N)NC(=O)[C@@H](NC(=O)[C@H](CCCCN)NC(=O)[C@H](CCC(=O)O)NC(=O)[C@H](CCCNC(=N)N)NC(=O)CNC(=O)[C@H](CCC(=O)O)NC(=O)[C@H](CC(C)C)NC(C)=O)C(C)C)C(=O)NC[C@H](C)C(=O)NC[C@H](C)C(=O)N[C@@H](CCC(=O)O)C(=O)NCC(=O)N[C@@H](CCSC)C(=O)N[C@@H](CO)C(=O)N[C@@H](CCCCN)C(=O)N[C@@H](Cc1c[nH]c2ccccc12)C(=O)N[C@@H](CO)C(=O)N[C@@H](CCCCN)C(=O)N[C@@H](CCCNC(=N)N)C(=O)N[C@@H](CCCCN)C(=O)N[C@@H](CCCCN)C(N)=O` (HELM PEPTIDE1{[ac].L.E.G.R.E.K.V.R.A.Q.I.[C[C@@H](CN[*:1])C(=O)[*:2]].[C[C@@H](CN[*:1])C(=O)[*:2]].E.G.M.S.K.W.S.K.R.K.K.[am]}$$$$V2.0), the remaining at 4 h, 5 µM is 79% in series [1] and 24% in series [4]. Moreover, the EC50 in series [5] is 14 nM. Besides, in series [6], the Emax was 99%.
In the case of `CCCCCCCCCCCCCCCC(=O)[C@H](CCC(N)=O)NC(=O)[C@H](CCC(=O)O)NC(=O)[C@H](CCC(=O)O)NC(=O)[C@H](CCCCN)NC(=O)CCOCCOCCOCCOCCOCCOCCOCCOCCOCCOCCOCCNC(=O)[C@H](CCCCN)NC(=O)[C@H](CCCNC(=N)N)NC(=O)[C@@H](C)CNC(=O)[C@H](CO)NC(=O)[C@H](Cc1c[nH]c2ccccc12)NC(=O)[C@@H](NC(=O)[C@H](CO)NC(=O)[C@H](CCCC)NC(=O)[C@H](CCSC)NC(=O)CNC(=O)[C@H](CCC(=O)O)NC(=O)[C@@H](C)CNC(=O)[C@@H](C)CNC(=O)[C@@H](NC(=O)[C@H](CCC(N)=O)NC(=O)[C@H](C)NC(=O)[C@H](CCCNC(=N)N)NC(=O)[C@@H](NC(=O)[C@H](CCCCN)NC(=O)[C@H](CCC(=O)O)NC(=O)[C@H](CCCNC(=N)N)NC(=O)[C@H](CCC(=O)O)NC(=O)CNC(=O)[C@H](CCC(=O)O)NC(=O)[C@H](CC(C)C)NC(C)=O)C(C)C)[C@@H](C)CC)[C@@H](C)O` (Ac-LEGEREKVRAQI[β2hAla(2S)][β2hAla(2S)]EGM[Nle]STWS[β2hAla(2S)]RK[PEG11]KEE-X7), the EC50 in series [5] stood at 3.2 nM. For the same molecule, the Emax in series [6] was 74%. Further, the half-life in series [8] was 6.4 h.
As to `CCCC[C@H](NC(=O)[C@H](CCSC)NC(=O)CNC(=O)[C@H](CCC(=O)O)NC(=O)[C@@H](C)CNC(=O)[C@@H](C)CNC(=O)[C@@H](NC(=O)[C@H](CCCCCNC(C)=O)NC(=O)[C@H](CCCCN)NC(=O)[C@H](C)NC(=O)[C@H](CCCNC(=N)N)NC(=O)[C@@H](NC(=O)[C@H](CCCCN)NC(=O)[C@H](CCC(=O)O)NC(=O)[C@H](CCCNC(=N)N)NC(=O)[C@H](CCC(=O)O)NC(=O)CNC(=O)[C@H](CCC(=O)O)NC(=O)[C@H](CC(C)C)NC(C)=O)C(C)C)[C@@H](C)CC)C(=O)N[C@@H](CCCCN)C(=O)N[C@@H](CCCCCNC(C)=O)C(=O)N[C@@H](CO)C(=O)N[C@H](C(=O)N[C@@H](Cc1c[nH]c2ccccc12)C(=O)N[C@@H](CO)C(=O)NC[C@H](C)C(=O)N[C@@H](CCCNC(=N)N)C(=O)N[C@@H](CCCCN)C(=O)N[C@@H](CCCCN)C(=O)N[C@@H](CCCCCNC(C)=O)C(=O)N[C@@H](CCCCN)C(=O)N[C@@H](CCC(=O)O)C(=O)N[C@@H](CCC(=O)O)C(=O)N[C@@H](CCC(N)=O)C(=O)CCCCCCCCCCCCCCCC(=O)O)[C@@H](C)O` (Ac-LEGEREKVRAK[hLys](Ac)I[β2hAla(2S)][β2hAla(2S)]EGM[Nle]K[hLys](Ac)STWS[β2hAla(2S)]RKK[hLys](Ac)KEE-X8), the figures for the EC50 in series [5] and in series [7] were 809 nM and above 2000 nM, respectively. For the same molecule, the Emax in series [6] amounted to 70%.
